How the values were obtained:
[1] = system: carrageenan-induced rat paw edema; assay: carrageenan-induced rat paw edema assay (anti-inflammatory activity); type: in vivo, male Sprague Dawley rats; settings: for % Inhibition: oral, control 63.9% edema; for anti-inflammatory activity (in words): administered orally
Description: Anti-inflamatory activity was determined by carragenaninduced paw edema of laboratory rats. Groups of six male Sprague Dawley rats orally received compound suspended in a 1% aqueous solution of Methocel brand methylcellulose. Control rats received a 0.5% aqueous solution of Methocel only. Two hours later, each rat received a subcutaneous injection of 0.1 ml of a 1% homogenized suspension of carrageenan in the plantar surface of the right hind paw.
Immediately, the volume of the paw was measured by immersing it in mercury to above the lateral mateolus. The mercury in a glass cylinder 25 mm in diameter and 60 mm deep was connected at the bottom on the cylinder by a column of water to a Statham transducer (model P23BB), range 0-5 cm of mercury pressure. The volume was recorded electronically on a Beckman recorder, R511. Three hours later, the inflamed paw volume was measured again, and the change in volume was recorded for each group. Indomethacin,a known anti-inflamatory agent, was included as a standard.

[2] = system: mice; assay: antihypoxia test: survival duration of mice in a normobaric atmosphere of 96% nitrogen and 4% oxygen at 35° C; type: in vivo; settings: for Survival Minutes, Compound: N=5, 35° C.
Description: N^1 = Number of mice in each group
NS = Not significant, P >0.05
ip = intraperitoneal administration
iv = intravenous administration
The antihypoxia test measures the survival duration of mice in a normobaric atmosphere consisting of 96% nitrogen and 4% oxygen, at 35° C. The mice are considered dead when they stop visible respiration. The test indicates potential clinical utility in situations of central nervous system hypoxia, such as occurs following stroke, cardiac arrest, and traumatic accidents.

[3] = minimal neurotoxic dose; design: species or system mice; settings: mouse, in vivo, ip
[4] = system: mice; assay: estimated LD50; settings: ip

Compound | % Inhibition ([1]; 25.0 mg/kg) [%] | % Inhibition ([1]; 50.0 mg/kg, Hydroiodide) [%] | % Inhibition ([1]; 100.0 mg/kg) [%] | anti-inflammatory activity (in words) [1] | % Inhibition ([1]; 50.0 mg/kg) [%] | Survival Minutes, Compound ([2]; 1 mg/kg iv, control 2.36, P NS) [min] | Survival Minutes, Compound ([2]; 1.5 mg/kg iv, control 2.30, P NS) [min] | prolonged the survival time of mice in the antihypoxia test ([2]; 6 mg/kg (i.p.)) | Survival Minutes, Compound ([2]; 6 mg/kg ip, control 2.08, P =0.04) [min] | minimal neurotoxic dose [3] [mg/kg] | Estimated LD50 [4] [mg/kg] | % Inhibition ([1]; 4.0 mg/kg) [%]
c1nnc2n1C1CC3CC(CC2C3)C1 [Example 1, 1,2,4-Triazolo[4,3-d]-4-azatricyclo[4.3.1.1^3,8]undecane Hydroiodide] | 17.0 | 43.4 | 56.6 | demonstrated activity | – | – | – | – | – | – | – | –
c1nnc2n1C1CC3CC(CC2C3)C1 [Example 2, 1,2,4-Triazolo[4,3-d]-4-azatricyclo[4.3.1.1^3,8]undecane] | 17.0 | – | – | demonstrated activity | 28.3 | 2.34 | 3.02 | more than 2 fold | 5.78 | 6 | 12 | –
COc1ccc2c(c1)c(CC(=O)O)c(C)n2C(=O)c1ccc(Cl)cc1 [Indomethacin, reference compound] | – | – | – | – | – | – | – | – | – | – | – | 52.8

From patent publication US4762828A, “1,2,4-triazolo[4,3-d]-4-azatricyclo-[4.3.1.1^3,8 ]undecane and 3-substituted derivatives, and intermediates thereof” (Pennwalt Corporation, priority 1987, dated 1988)
